{"source": "patent US20040138272A1", "about": "“1,4-Substituted cyclohexane derivatives” (priority 2002, published 2004)", "target": "T1, ROCK II (Rattus norvegicus, UniProt Q62868)", "T1 construct": "purchased Upstate (Lake Placid, N.Y.)", "T1 sequence (Q62868 11-550 limits assumed)": "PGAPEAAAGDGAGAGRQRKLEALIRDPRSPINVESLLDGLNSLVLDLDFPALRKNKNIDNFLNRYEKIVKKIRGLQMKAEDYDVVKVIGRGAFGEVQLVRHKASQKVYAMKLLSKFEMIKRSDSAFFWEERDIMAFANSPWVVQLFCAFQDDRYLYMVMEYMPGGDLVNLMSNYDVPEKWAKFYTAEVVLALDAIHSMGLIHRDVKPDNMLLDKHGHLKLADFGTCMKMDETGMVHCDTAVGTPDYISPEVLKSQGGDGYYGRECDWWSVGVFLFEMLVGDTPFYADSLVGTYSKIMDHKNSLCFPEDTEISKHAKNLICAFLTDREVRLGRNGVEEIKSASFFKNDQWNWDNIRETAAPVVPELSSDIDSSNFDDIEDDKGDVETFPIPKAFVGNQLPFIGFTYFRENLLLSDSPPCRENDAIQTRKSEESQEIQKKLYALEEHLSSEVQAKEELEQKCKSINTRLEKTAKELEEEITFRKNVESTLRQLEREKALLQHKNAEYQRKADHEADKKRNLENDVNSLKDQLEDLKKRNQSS", "assay": "ROCK II kinase assay with [γ-32P] ATP and myelin basic protein substrate (FIG. 3)", "assay_type": "biochemical", "details": "100 μM ATP, 30 min at 30° C.", "from_the_text": "The ability of compounds to inhibit ROK activity may be tested in a cell-free assay system using recombinant ROK, radiaoactive ATP, and Myelin basic Protein (MBP). MBP is a highly phosphorylated protein, is inexpensive to buy in purified form, is phosphorylated by ROK, and is used as the assay substrate for phosphorylation. Recombinant ROK has been prepared from a number of sources. Overexpression in mammalian cells provides a convenient, easily renewed source of ROK activity. Measurement of Rho-associated kinase (ROK) activity is important to determine the potency of novel inhibitors. MBP is a substrate for ROK and a number of other protein kinases, making it useful both to quantitate ROK activity and to indicate the potency and specificity of novel inhibitors for ROK. […]\nROCK II was assayed in 20 mM MOPS, pH 7.2, 25 mM β-glycerophosphate, 5 mM EGTA, 1 mM sodium orthovanadate, 1 mM dithiothreitol with dephosphorylated myelin basic protein (MBP, 0.2 mg/ml) as substrate with or without BA-1016 or BA-1017. […] Assays were initiated by adding Mg^2+/ATP and terminated by spotting 40 μl of each reaction onto phosphocellulose paper (P81 paper, Whatman), followed by washes in 0.75% phosphoric acid to remove ATP and then dried, put in scintillation cocktail and counted to measure ^32P incorporation. Radioactivity is measured using a scintillation counter. […]", "data": [{"substance": "(R)-trans-4-(But-3′-en-1′-amino)-N-(4″-pyridyl)cyclohexane Carboxamide Dihydrochloride [BA-1016]", "values": [{"measurement": "inhibition of ROCKII activity (FIG. 3)", "result": "inhibition of ROCKII activity"}]}]}
